Data as given in patent US5843735A, “Aklavinone C-11 hydroxylase, gene coding for same, expression vector therefor, and process for preparing hybrid antibiotics by using said vector” (priority 1995, dated 1998).
Read-outs that look alike come from different tables or passages of the source.

How the values were obtained:
[1] = Solubility in organic solvents; details: methanol (MeOH), chloroform (CHCl3)
HCC-2298 = assay: Anticancer activity, reduced human cancer cell line panel (NCI method), Colon Cancer; format: cell-based
Procedure: (§1) The anticancer activities of aclacinomycin X, 11-hydroxy aclacinomycin X and 11-hydroxy aclacinomycin A were determined by using a reduced human cancer cell line panel(supplier: National Cancer Institute, U.S.A.) in accordance with the method of National Cancer Institute, U.S.A. (Monks, A., et al., J. Natl. Cancer Inst., 83, 757-766(1991)), and the results are shown in Table I.

HT29 = assay: as above; format: cell-based
Procedure: as §1

K-562 = assay: Anticancer activity, reduced human cancer cell line panel (NCI method), Leukemia; format: cell-based
Procedure: as §1

HL-60 TB = assay: as above; format: cell-based; details: for LC50 (50% lethal concentration): Leukemia, HL-60 TB, read-out: Log10 LC50 (converted)
Procedure: as §1

human cancer cell lines = assay: Anticancer / growth inhibiting activity against the human cancer cell line panel, overall; format: cell-based; details: for growth inhibiting activities compared with aclacinomycin A: various human cancer cell lines
Procedure: as §1

UO-31 = assay: Anticancer activity, reduced human cancer cell line panel (NCI method), Renal Cancer; format: cell-based; details: UO-31, read-out: Log10 LC50 (converted)
Procedure: as §1

786-0 = assay: as above; format: cell-based; details: 786-0, read-out: Log10 LC50 (converted)
Procedure: as §1

A-549 = assay: Anticancer activity, reduced human cancer cell line panel (NCI method), Non-Small Cell Lung Cancer; format: cell-based
Procedure: as §1

EKVX = assay: as above; format: cell-based; details: read-out: Log10 LC50 (converted)
Procedure: as §1

SF-268 = assay: Anticancer activity, reduced human cancer cell line panel (NCI method), CNS Cancer; format: cell-based; details: SF-268, read-out: Log10 LC50 (converted)
Procedure: as §1

U251 = assay: as above; format: cell-based
Procedure: as §1

PC-3 = assay: Anticancer activity, reduced human cancer cell line panel (NCI method), Prostate Cancer; format: cell-based; details: PC-3, read-out: Log10 LC50 (converted)
Procedure: as §1

DU-145 = assay: as above; format: cell-based; details: DU-145, read-out: Log10 LC50 (converted)
Procedure: as §1

MCF7 = assay: Anticancer activity, reduced human cancer cell line panel (NCI method), Breast Cancer; format: cell-based; details: MCF7, read-out: Log10 LC50 (converted)
Procedure: as §1

MDA-N = assay: as above; format: cell-based; details: read-out: Log10 LC50 (converted)
Procedure: as §1

SK-OV-3 = assay: Anticancer activity, reduced human cancer cell line panel (NCI method), Ovarian Cancer; format: cell-based; details: SK-OV-3, read-out: Log10 LC50 (converted)
Procedure: as §1

OVCAR-3 = assay: as above; format: cell-based; details: OVCAR-3, read-out: Log10 LC50 (converted)
Procedure: as §1

MALME-3M = assay: Anticancer activity, reduced human cancer cell line panel (NCI method), Melanoma; format: cell-based; details: read-out: Log10 LC50 (converted)
Procedure: as §1

SK-MEL-2 = assay: as above; format: cell-based; details: SK-MEL-2, read-out: Log10 LC50 (converted)
Procedure: as §1

[2] = HT-29, Colon Cancer, HT29, read-out: Log10 LC50 (converted)
[3] = K562, Leukemia, K-562, read-out: Log10 LC50 (converted)
[4] = A549, Non-Small Cell Lung Cancer, A-549, read-out: Log10 LC50 (converted)
[5] = U-251, CNS Cancer, U251, read-out: Log10 LC50 (converted)

SMILES | dissolves easily (solubility) [1] | growth inhibiting activities compared with aclacinomycin A (human cancer cell lines) | CC50 (HT29; [2]) [µM] | CC50 (K-562; [3]) [µM] | LC50 (50% lethal concentration) (HL-60 TB) [µM] | CC50 (UO-31; Renal Cancer) [µM] | LC50 (50% lethal concentration) (786-0; Renal Cancer) [µM] | LC50 (A-549; [4]) [µM] | CC50 (EKVX; Non-Small Cell Lung Cancer) [µM] | CC50 (SF-268; CNS Cancer) [µM] | CC50 (U251; [5]) [µM] | LC50 (PC-3; Prostate Cancer) [µM] | LC50 (DU-145; Prostate Cancer) [µM] | LC50 (50% lethal concentration) (MCF7; Breast Cancer) [µM] | CC50 (MDA-N; Breast Cancer) [µM] | CC50 (OVCAR-3; Ovarian Cancer) [µM] | LC50 (concentration killing 50% of cells) (MALME-3M; Melanoma, MALME-3M) [µM] | CC50 (SK-MEL-2; Melanoma) [µM] | other results
CC[C@@]1(O)C[C@H](O[C@H]2C[C@H](N(C)C)[C@H](O[C@H]3C[C@@H]4OC5CC(=O)C(C)OC5O[C@@H]4[C@H](C)O3)[C@H](C)O2)c2c(O)c3c(c(O)c2[C@H]1C(=O)OC)C(=O)c1cccc(O)c1C3=O (stereo partly drawn) [11-hydroxy aclacinomycin B] | dissolves easily in MeOH and CHC13 | – | – | – | – | – | – | – | – | – | – | – | – | – | – | – | – | – | –
CC[C@@]1(O)C[C@H](O[C@H]2C[C@H](N(C)C)[C@H](O[C@H]3C[C@H](O)[C@H](O[C@H]4CCC(=O)[C@H](C)O4)[C@H](C)O3)[C@H](C)O2)c2c(O)c3c(c(O)c2[C@H]1C(=O)OC)C(=O)c1cccc(O)c1C3=O [11-Hydroxy aclacinomycin A, 11-hydroxy aclacinomycin A] | dissolves easily in MeOH or CHCL3 | higher growth inhibiting activities than aclacinomycin A | – | – | – | – | – | – | – | – | – | – | – | – | – | – | – | – | CC50 (HCC-2298; read-out: Log10 LC50 (converted)): < 0.01 µM; CC50 (HT29; HT-29, read-out: Log10 LC50 (converted)): 12.9 µM; CC50 (K-562; K562, read-out: Log10 LC50 (converted)): 1.78 µM; CC50 (HL-60 TB; HL-60, read-out: Log10 LC50 (converted)): < 0.01 µM; anticancer activity (human cancer cell lines; leukemia, colon cancer and melanoma cell lines): high anticancer activity; CC50 (UO-31): 19.1 µM; LC50 (50% lethal concentration) (786-0): 8.32 µM; LC50 (A-549; A549, read-out: Log10 LC50 (converted)): 24.5 µM; CC50 (EKVX): 0.257 µM; CC50 (SF-268): 79.4 µM; CC50 (U251; U-251, read-out: Log10 LC50 (converted)): 56.2 µM; LC50 (PC-3): 14.5 µM; LC50 (DU-145): 24.5 µM; LC50 (50% lethal concentration) (MCF7): 25.1 µM; CC50 (MDA-N): 100 µM; CC50 (SK-OV-3): 38.9 µM; CC50 (OVCAR-3): 72.4 µM; LC50 (concentration killing 50% of cells) (MALME-3M; Malme-3M): 0.0676 µM; CC50 (SK-MEL-2): < 0.01 µM
CC[C@@]1(O)C[C@H](O[C@H]2C[C@H](N(C)C)[C@H](O)[C@H](C)O2)c2c(O)c3c(c(O)c2[C@H]1C(=O)OC)C(=O)c1cccc(O)c1C3=O [11-Hydroxy aclacinomycin T, 11-hydroxy aclacinomycin T] | dissolves easily in MeOH or CHC13 | – | – | – | – | – | – | – | – | – | – | – | – | – | – | – | – | – | –
CC[C@@]1(O)C[C@H](O[C@H]2C[C@H](N(C)C)[C@H](O[C@H]3C[C@H](O)[C@H](O[C@@H]4O[C@@H](C)C(=O)C=C4N)[C@H](C)O3)[C@H](C)O2)c2c(cc3c(c2O)C(=O)c2c(O)cccc2C3=O)[C@H]1C(=O)OC [Aclacinomycin X, aclacinomycin X] | dissolves easily in methanol or chloroform | higher growth inhibiting activities than aclacinomycin A | 30.9 | 60.3 | 30.9 | 26.3 | 18.2 | 4.07 | 18.6 | 11.2 | 18.2 | 8.32 | 30.2 | 43.7 | > 100 | > 100 | 0.562 | 0.0525 | CC50 (HCC-2298; Colon Cancer, HCC-2298, read-out: Log10 LC50 (converted)): 0.191 µM; selective anticancer activities (human cancer cell lines; colon cancer, melanoma and breast cancer cell lines): selective anticancer activities against colon cancer, melanoma and breast cancer cell lines; CC50 (SK-OV-3; Ovarian Cancer): > 100 µM
CC[C@@]1(O)C[C@H](O[C@H]2C[C@H](N(C)C)[C@H](O[C@H]3C[C@H](O)[C@H](O[C@@H]4O[C@@H](C)C(=O)C=C4N)[C@H](C)O3)[C@H](C)O2)c2c(O)c3c(c(O)c2[C@H]1C(=O)OC)C(=O)c1cccc(O)c1C3=O [11-Hydroxy aclacinomycin X, 11-hydroxy aclacinomycin X] | dissolves easily in MeOH or CHCl3 | higher growth inhibiting activities than aclacinomycin A | 47.9 | 7.59 | 0.234 | 15.5 | 4.57 | 21.4 | 0.977 | > 100 | > 100 | 6.76 | 41.7 | 30.9 | > 100 | > 100 | 0.0537 | < 0.01 | anticancer activities compared with aclacinomycin X (human cancer cell lines; leukemia, melanoma and breast cancer cell lines): higher than aclacinomycin X
